Measurements taken from patent US20130129841A1, “THERAPEUTIC COMBINATION COMPRISING A PARP-1 INHIBITOR AND AN ANTI-NEOPLASTIC AGENT” (NERVIANO MEDICAL SCIENCES S.r.l., priority 2010, published 2013).
Like-named read-outs stand apart in the source and are kept apart here.

Columns and labels:
[1] = system: ovarian cancer patients with confirmed BRCA-1 mutations; conditions: phase I, monotherapy, oral, preliminary data; cited from earlier work
[2] = system: Capan-1 BRCA-2 mutated human pancreatic xenograft model; conditions: for Toxicity: number of death animals
Procedure: (§1) Balb, Nu/Nu male mice, from Harlan (Italy) or CD1 Nu/Nu female mice from CRI, were maintained in agreement with the European Communities Council Directive no. 86/609/EEC, in cages with paper filter cover, food and bedding sterilized and acidified water. Fragments of Capan-1 human pancreatic cancer tumors, MX-1 human breast cancer tumors and HCT-116 human colon carcinoma were implanted subcutaneously. KM-12 cells were grown in vitro and 3×106 in 0,2 ml were implanted subcutaneously. The treatment started when tumors were palpable.
(§2) Compounds of formula (I) were administered by oral route in a volume of 10 ml/kg at the indicated doses from day 1 to 12. Temozolomide was administered orally at the dose of 62.5 mg/kg for 5 days. When combined, compound of formula (I) was administered from day 1 to 12 and temozolomide from day 3 to day 7. Irinotecan was administered intravenous at the dose of 45 mg/kg 2 or 3 times every 4 days. When combined, compound of formula (I) was administered from day 1 to 8 or to 12 and irinotecan on day 3 and day 7 or and days 1, 5 and 9. Docetaxel was administered intravenously at the dose of 5 mg/kg once a week for three times. When combined, compound of formula (I) was administered from day 1 to 12 and docetaxel on days 1, 8 and 15.
(§3) Tumor growth and body weight were measured every 3 days. Tumor growth was assessed by caliper. The two diameters were recorded and the tumor weight was calculated according the following formula: length (mm)×width^2 /2. The effect of the antitumor treatment was evaluated as the delay in the onset of an exponential growth of the tumor (see for references Anticancer drugs 7:437-60, 1996). This delay (T-C value) was defined as the difference of time (in days) required for the treatment group (T) and the control group (C) tumors to reach a predetermined size (1 g). Toxicity was evaluated on the basis of number of death animals during the experiment.

[3] = system: MX-1 human breast cancer xenograft model BRCA-1 mutated; conditions: MX-1 xenograft; for Toxicity: number of death animals
Procedure: as §1, §2, §3

[4] = system: HCT-116 human colorectal cancer xenograft model
Procedure: as §1, §2, §3

[5] = system: KM-12 human colorectal cancer xenograft model pTEN mutated
Procedure: as §1, §2, §3

[6] = system: A-375 human melanoma cell line; experiment: In vitro combination cytotoxic activity, cell proliferation (CellTiterGlo), 6 days; type: cell-based; conditions: single agent
Procedure: Materials and methods. […] Drugs were added to the experimental culture, and incubations were carried out at 37° C. for 6 days in the dark. Serial dilution curves were prepared in medium by using a liquid handler Multiprobe II (PerkinElmer). Scalar doses of the compound of formula (I) and antineoplastic agents were added to the medium 24 hours after seeding. Drug solutions were prepared immediately before use. At the end of treatment, cell proliferation was determined by an intracellular adenosine triphosphate monitoring system (CellTiterGlo- Promega) using an Envision (PerkinElmer) reader. Inhibitory activity was evaluated comparing treated versus control data using the Assay Explorer (MDL) program. The dose inhibiting 50% of cell growth was calculated using sigmoidal interpolation curve.

[7] = system: HCT-116 human colon cancer cell line; experiment: as above; type: cell-based; conditions: single agent
Procedure: (§4) Materials and methods. Exponentially growing human cancer cell line (MDA-MB-436, MDA-MB-468, A-375, HCT-116, KM-12) was seeded and incubated at 37° C. in a humidified 5% CO2 atmosphere. Drugs were added to the experimental culture, and incubations were carried out at 37° C. for 6 days in the dark. Serial dilution curves were prepared in medium by using a liquid handler Multiprobe II (PerkinElmer). Scalar doses of the compound of formula (I) and antineoplastic agents were added to the medium 24 hours after seeding. Drug solutions were prepared immediately before use. At the end of treatment, cell proliferation was determined by an intracellular adenosine triphosphate monitoring system (CellTiterGlo- Promega) using an Envision (PerkinElmer) reader. Inhibitory activity was evaluated comparing treated versus control data using the Assay Explorer (MDL) program. The dose inhibiting 50% of cell growth was calculated using sigmoidal interpolation curve.

[8] = system: KM-12 human colon cancer cell line; experiment: as above; type: cell-based
Procedure: as §4

[9] = Capan-1, Table 8, Compound 1 100 mg/kg oral, days 1 to 12
[10] = Compound 2 100 mg/kg oral, days 1 to 8 (footnote *)
[11] = Capan-1, Table 9, Compound 2 50 mg/kg oral, days 1 to 12
[12] = docetaxel 5 mg/kg intravenous, days 1, 8 and 15
[13] = Capan-1, Table 8, temozolomide 62.5 mg/kg oral, days 3 to 7
[14] = Capan-1, Table 9, temozolomide 62.5 mg/kg oral, days 3 to 7

Compound: O=C(c1cc(Cc2n[nH]c(=O)c3ccccc23)ccc1F)N1CCN(C(=O)C2CC2)CC1 [AZD2281]
- partial responses [1]: 4 out of 10

Compound: NC(=O)c1cccc2c1C(=O)N(C1CCN(C3CCC(F)(F)CC3)CC1)C2 [Compound 1, 2-[1-(4,4-difluorocyclohexyl)piperidin-4-yl]-3-oxo-2,3-dihydro-1H-isoindole-4-carboxamide]
- T-C [2, 9]: 5 days
- Toxicity [2, 9]: 0/7

Compound: NC(=O)c1cc(F)cc2c1C(=O)N(C1CCN(C3CCC(F)(F)CC3)CC1)C2 [Compound 2, 2-[1-(4,4-difluorocyclohexyl)piperidin-4-yl]-6-fluoro-3-oxo-2,3-dihydro-1H-isoindole-4-carboxamide]
- T-C [3, 10]: 2 days
- Toxicity [3, 10]: 0/7
- T-C [2, 11]: 6 days
- Toxicity [2, 11]: 0/7
- T-C ([4]; HCT-116 xenograft, Compound 2 50 mg/kg oral, days 1 to 8): 1 days
- T-C ([4]; HCT-116 xenograft, Compound 2 100 mg/kg oral, days 1 to 8): 4 days
- Toxicity ([4]; mouse, in vivo, po, 50 mg/kg): 0/7
- Toxicity ([4]; mouse, in vivo, po, 100 mg/kg): 0/7
- T-C ([5]; KM-12 xenograft, Compound 2 50 mg/kg oral, days 1 to 12): 1 days
- Toxicity ([5]; mouse, in vivo, po, 50 mg/kg): 0/7
- IC50 [6]: 32.5 µM
- IC50 ([7]; Homo sapiens): 14.1 µM
- IC50 ([8]; Homo sapiens, KM12, single agent): 19.4 µM

Compound: CC(=O)O[C@@]12CO[C@@H]1C[C@H](O)[C@@]1(C)C(=O)[C@H](O)C3=C(C)[C@@H](OC(=O)[C@H](O)[C@@H](NC(=O)OC(C)(C)C)c4ccccc4)C[C@@](O)([C@@H](OC(=O)c4ccccc4)[C@H]21)C3(C)C [Docetaxel, docetaxel, reference compound]
- T-C [3, 12]: 3 days
- Toxicity [3, 12]: 0/7

Compound: CCc1c2c(nc3ccc(OC(=O)N4CCC(N5CCCCC5)CC4)cc13)-c1cc3c(c(=O)n1C2)COC(=O)[C@]3(O)CC [Irinotecan, irinotecan, reference compound]
- T-C ([4]; HCT-116 xenograft, irinotecan 45 mg/kg intravenous, days 1, 5 and 9): 16 days
- Toxicity ([4]; HCT-116 xenograft, irinotecan 45 mg/kg intravenous, days 1, 5 and 9, number of death animals): 0/7
- T-C ([5]; KM-12 xenograft, irinotecan 45 mg/kg intravenous, days 3 and 7): 1 days
- Toxicity ([5]; KM-12 xenograft, irinotecan 45 mg/kg intravenous, days 3 and 7, number of death animals): 0/7

Compound: CCc1c2c(nc3ccc(O)cc13)-c1cc3c(c(=O)n1C2)COC(=O)[C@]3(O)CC [SN-38, reference compound]
- IC50 [7]: 0.0011 µM
- IC50 ([8]; single agent): 0.0015 µM

Compound: Cn1nnc2c(C(N)=O)ncn2c1=O [Temozolomide, temozolomide, reference compound]
- T-C [2, 13]: 5 days
- Toxicity [2, 13]: 0/7
- T-C [2, 14]: 9 days
- Toxicity [2, 14]: 0/7
- IC50 [6]: 932 µM
